Data from patent US12599599B2, “Anti-inflammatory, anti-cancer, and anti-angiogenic compounds, pharmaceutical compositions, and methods of making and using thereof” (MEDICON PHARMACEUTICALS, INC., priority 2017, dated 2026).

Experiments:
SKOV-3 ovarian cancer = assay: 24 hr growth inhibition of cell line; format: cell-based; settings: Homo sapiens, SK-OV-3, 24 h
Experimental: (§1) The therapeutic efficacy of compounds 2, 5, and 6 was assessed in human and murine cell lines of varied tissue origin, and their 24 hr 50% inhibitory concentration was determined by following standard methodologies. Typical results are shown in the Table 5, indicating a broad anticancer effect.
Ovarian cancer cells were studied in greater detail using the following ovarian cancer cell lines: SKOV-3, OVCAR3, A2780 (and two cell lines derived from it, A2870cis that is resistant to cisplatin, and A2870ADR that is resistant to doxorubicin (Adriamycin)), and HEY (sensitive to paclitaxel (Taxol), and its derivative HEY-T30 that is Taxol-resistant). […]

HEY-T30 xenografts = assay: Synergy with cyclophosphamide, Taxol resistant subcutaneous xenografts; format: in vivo, nude mice; settings: day 21; compound 5 10 mg/kg/day six days a week ip; cyclophosphamide 10 mg/kg six days a week orally; or both
A2780 xenografts = assay: Subcutaneous xenografts in nude mice, platinum sensitive; format: in vivo; settings: compound 5 15 mg/kg/day six days a week ip; cis-platinum 5.5 mg/kg one time a week ip
Experimental: To determine whether compound 5 is efficacious against chemotherapy-resistant ovarian cancer, three pairs of sensitive and resistant human ovarian cancer cell lines were grown as subcutaneous xenografts in nude mice and treated as summarized in FIG. 10. These cell lines were: A2780, sensitive to both cis-platinum and Adriamycin (doxorubicin); A2780cis, resistant to cis-platinum; A2780ADR, resistant to Adriamycin: HEY, sensitive to Taxol; HEY-T30, resistant to Taxol. The treatments administered were: vehicle control; compound 5, 15 mg/kg/day six days a week, ip; cis-platinum 5.5 mg/kg, one time a week ip; Adriamycin 3 mg/kg twice a week ip; and Taxol 20 mg/kg twice a week ip.

[1] = test system: chicken embryo chorioallantoic membrane; assay: Chicken embryo chorioallantoic membrane assay; format: in vivo
VEGF-B = assay: Secreted VEGF in culture medium by ELISA; format: cell-based, human
Experimental: (§2) The effect of compounds 2, 5, and 6 on VEGF production was examined. For example, SKOV-3 ovarian cancer cells grown in culture were treated with compound 5 1×IC50 for up to 24 h. Secreted VEGF was assayed in the culture medium by ELISA (R&D Systems). […] For example, at 24 h, the reduction of secreted VEGF-A over the corresponding controls was: OVCAR3=100%, A2780=86%, A2780cis=100%, and A2780ADR=100%. Compound 5 suppressed VEGF-B by 90-92% compared to control. The anti-VEFG effect of Compound 5 is as strong in the drug-resistant as in the drug-sensitive cell lines.

VEGF-A = assay: Secreted VEGF in culture medium by ELISA; format: cell-based, human
Experimental: as §2

[2] = test system: 5′-cap dependent translation initiation; assay: Renilla-Firefly luciferase dual translation assay in SKOV-3 cells; format: cell-based, human
Description: FIG. 13A: Compound 5 induces the phosphorylation of eIF2α, confirming integrated stress response. p-eIF2αinduces ATF4 that suppresses 5′-cap dependent translation initiation, shown below. […] The levels of reporter proteins used in the translation assay (Pierce™ Renilla-Firefly Luciferase Dual Assay Kit; Thermo Scientific, Grand Island, NY) were normalized to the levels of intracellular FLUC-RLUC transcripts and are shown as percent of untreated control cells. RLU=Relative light units. 5′-cap dependent translation initiation was much less and occurred later. Values: Mean±SEM; *, p<0.05 and **, p<0.01 vs. control. […] Loading controls: β-actin and GADPH.

[3] = test system: SKOV-3 human ovarian cancer cells; assay: Transmission electron microscopy, ER stress; format: cell-based; settings: 1.5×IC50
Experimental: (§3) FIGS. 12A-12C and FIGS. 13A-13C illustrate key findings related to the mechanism of action of compound 5 against ovarian cancer. The studies shown here were performed in SKOV-3 human ovarian cancer cells. FIG. 12A: Left: Compound 5 increases the percentage of cells with acridine orange staining determined by flow cytometry (4% 4→38% after treatment with compound 5) and indicating the induction of autophagy. Right: Electron micrographs show morphological features of cells undergoing autophagy. Yellow arrowheads: vacuoles; white arrowheads: autophagosomes. […] N: nucleus; ER: endoplasmic reticulum with visible ribosomes. The left micrograph shown normal ER (circled) in a vehicle-treated cell. […] The latter finding is diagnostic of ER stress. Magnification: 6,800×. FIG. 12C: Compound 5 suppresses STAT3, mTOR and JNK activation by phosphorylation, as well as the levels of COT.

AGS gastric cancer = assay: 24 hr growth inhibition of cell line; format: cell-based; settings: Homo sapiens
Experimental: as §1

RAW264 murine macrophage = assay: 24 hr growth inhibition of cell line; format: cell-based; settings: Mus musculus, RAW264.7, 24 h
Experimental: as §1

A549 lung cancer = assay: 24 hr growth inhibition of cell line; format: cell-based; settings: Homo sapiens
Experimental: as §1

HCT116 colon cancer = assay: 24 hr growth inhibition of cell line; format: cell-based; settings: Homo sapiens, HCT-116, 24 h
Experimental: as §1

[4] = test system: Ras palmitoylation in A2780 and A2780cis ovarian cancer cells; assay: Ras palmitoylation (resin capture, immunoblot); format: cell-based, human
Experimental: FIGS. 18A-18B illustrate the effect of compounds 5 and 6 on K-Ras. FIG. 18A: Compound 6 suppressed of K-Ras activation. Cells with mutant K-Ras were treated with compound 6 1.5×IC50 for the respective time periods. K-Ras activity was determined by Ras pull-down (Thermo Scientific; following vendor instructions). K-Ras activation is suppressed 37% at 1 hr and 88% at 2 hrs compared to respective controls. FIG. 18B: Compound 5 suppressed the palmitoylation of Ras in A2780 and A2780cis (resistant to cisplatin) ovarian cancer cells. Palmitoylation is detected by removing S-palmitate groups from proteins, creating new free thiols (where the palmitic acid group used to be) and capturing the previously S-palmitoylated proteins on a resin, using a commercial kit (Badrilla, Leeds, UK). Ras was detected in the eluate by immunoblot.
This effect may be particularly useful in types of cancer characterized by K-Ras mutation such as, for example, pancreatic, lung and ovarian cancer. FIG. 18A illustrates the inhibition of K-Ras activation by compound 6. […] This property of compound 5 is not shared for example by compound 6 or phosphosulindac.

[5] = test system: SKOV-3 human ovarian cancer cells; assay: Acridine orange staining by flow cytometry (autophagy); format: cell-based; settings: after treatment; 4% before
Experimental: as §3

CCN(CC)CCCCNC(=O)c1ccccc1SC/C=C(\C)CC/C=C(\C)CCC=C(C)C [Compound 5]
IC50 (SKOV-3 ovarian cancer): 9 µM
inhibition of tumor growth compared to control (HEY-T30 xenografts): 26%
growth of platinum-sensitive xenografts (A2780 xenografts): suppressed the growth
new vessels after treatment ([1]; control 58±4.9 (compound 5), 42.6±8.2 (compound 6)): 46±2.1
reduction of formation of new vessels ([1]; in vivo): 21%
suppression of VEGF-B compared to control (VEGF-B): 90-92%
reduction of secreted VEGF-A over controls (VEGF-A; A2780, 24 h): 86%
reduction of secreted VEGF-A over controls (VEGF-A; A2780ADR, 24 h): 100%
reduction of secreted VEGF-A over controls (VEGF-A; A2780cis, 24 h): 100%
reduction of secreted VEGF-A over controls (VEGF-A; OVCAR3, 24 h): 100%
suppression of secreted VEGF-A levels (VEGF-A; SKOV-3, 1×IC50, 6 hr): 80%
suppression of secreted VEGF-A levels (VEGF-A; SKOV-3, 1×IC50, 24 hr): 100%
5′-cap dependent translation initiation [2]: suppresses predominantly
endoplasmic reticulum (ER) stress [3]: induction of endoplasmic reticulum (ER) stress
IC50 (AGS gastric cancer): 14 µM
IC50 (RAW264 murine macrophage): 5 µM
IC50 (A549 lung cancer): 19 µM
IC50 (HCT116 colon cancer): 10 µM
suppression of palmitoylation of Ras [4]: suppressed
percentage of cells with acridine orange staining [5]: 38%
